Measured values taken from ChEMBL document CHEMBL1144292, “Estrogen receptor ligands. Part 11: Synthesis and activity of isochromans and isothiochromans” (Bioorg Med Chem Lett, 2005).

Experiments:
Estrogen receptor [1] = molecular target: T1, Estrogen receptor (Homo sapiens, UniProt P03372)
T1 sequence (P03372 whole entry): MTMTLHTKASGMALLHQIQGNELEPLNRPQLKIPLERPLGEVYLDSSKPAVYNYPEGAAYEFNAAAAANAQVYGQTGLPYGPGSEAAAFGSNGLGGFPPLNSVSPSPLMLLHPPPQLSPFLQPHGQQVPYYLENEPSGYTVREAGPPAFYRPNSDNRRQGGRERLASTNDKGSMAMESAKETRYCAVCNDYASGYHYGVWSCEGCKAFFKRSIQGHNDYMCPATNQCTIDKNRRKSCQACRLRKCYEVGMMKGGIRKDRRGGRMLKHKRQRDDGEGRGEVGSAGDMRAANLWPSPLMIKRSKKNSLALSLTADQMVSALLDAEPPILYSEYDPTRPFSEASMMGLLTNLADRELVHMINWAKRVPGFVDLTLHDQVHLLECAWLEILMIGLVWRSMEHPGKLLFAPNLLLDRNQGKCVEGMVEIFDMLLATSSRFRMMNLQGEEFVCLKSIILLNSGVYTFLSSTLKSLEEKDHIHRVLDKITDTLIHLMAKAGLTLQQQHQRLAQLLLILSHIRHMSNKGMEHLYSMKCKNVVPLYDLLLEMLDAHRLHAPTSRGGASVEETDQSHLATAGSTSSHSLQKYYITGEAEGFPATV
Description: Binding affinity for human estrogen receptor alpha

Estrogen receptor beta = Estrogen receptor beta (Homo sapiens, UniProt Q92731)
Estrogen receptor beta, sequence (Q92731 whole entry): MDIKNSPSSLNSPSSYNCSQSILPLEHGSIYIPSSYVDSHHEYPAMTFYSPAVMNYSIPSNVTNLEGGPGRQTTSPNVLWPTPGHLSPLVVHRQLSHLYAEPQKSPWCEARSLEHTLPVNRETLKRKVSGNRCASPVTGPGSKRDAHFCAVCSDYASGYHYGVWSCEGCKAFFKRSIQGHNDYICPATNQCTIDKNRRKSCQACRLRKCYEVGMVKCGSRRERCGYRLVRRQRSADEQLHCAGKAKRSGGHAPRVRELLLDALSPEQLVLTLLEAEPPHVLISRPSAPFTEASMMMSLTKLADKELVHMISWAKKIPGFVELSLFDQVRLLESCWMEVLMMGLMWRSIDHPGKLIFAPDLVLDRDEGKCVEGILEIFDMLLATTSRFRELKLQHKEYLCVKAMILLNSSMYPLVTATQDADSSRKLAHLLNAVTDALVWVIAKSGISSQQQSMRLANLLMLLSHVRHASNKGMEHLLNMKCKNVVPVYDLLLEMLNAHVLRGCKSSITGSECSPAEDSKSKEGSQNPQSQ
Description: Binding affinity for human estrogen receptor beta

Estrogen receptor [2] = molecular target: Estrogen receptor (Homo sapiens, UniProt Q92731+P03372); conditions: mcf-7
Description: Inhibition of MCF-7 cell proliferation

SMILES | IC50 (Estrogen receptor [1]) | IC50 (Estrogen receptor beta) | IC50 (Estrogen receptor [2])
COc1ccc2c(c1)CS[C@H](c1ccccc1)[C@@H]2c1ccc(OCCN2CCCC2)cc1 | 13 nM | 110 nM | 164 nM
COc1ccc2c(c1)CO[C@H](c1ccccc1)[C@@H]2c1ccc(OCCN2CCCC2)cc1 | 39 nM | 315 nM | 57 nM
Oc1ccc2c(c1)CS[C@H](c1ccccc1)[C@@H]2c1ccc(OCCN2CCCC2)cc1 | 0.6 nM | 2.1 nM | 0.25 nM
Oc1ccc2c(c1)CO[C@H](c1ccccc1)[C@@H]2c1ccc(OCCN2CCCC2)cc1 | 2.4 nM | 3.6 nM | 0.15 nM
